Columns and labels:
human NK1 receptor = human NK1 receptor (Homo sapiens (Human), UniProt P25103); experiment: Human NK1 receptor binding assay: radioligand (125I-Bolton-Hunter-SP) binding inhibition using receptor from human lymphoblast cells (IM-9)
Description: 42, p. […] The receptor was prepared from human lymphoblast cells (IM-9).

[1] = molecular target: human NK2 (hNK2) receptor (Homo sapiens (Human), UniProt P21452); experiment: Human NK2 receptor binding assay: radioligand ([125I]-NK-A) binding inhibition using membrane fraction of CHO cells expressing hNK2 receptor; settings: CHO cell membrane fraction
Description: CHO cells expressing hNK2 receptor were cultured in a HAM-F12 medium containing 400 μg/mL geneticin, 100 U/mL penicillin, 100 μg/mL streptomycin and 10% inactivated serum. The medium was removed, the adhered cells were washed with PBS, and PBS containing 5 mM EDTA was added to detach the cells from the flask. The cells were collected by centrifugation, suspended in suspension buffer A (15 mM Tris-HCl (pH 7.5), 2 mM MgCl2, 0.3 mM ethylenediaminetetraacetic acid (EDTA), 1 mM O,O′-bis(2-aminoethyl)ethyleneglycol-N,N,N′,N′-tetraacetic acid (EGTA)), disrupted by a Polytron homogenizer (Kinematika), and centrifuged at 800×g for 10 min. The supernatant was recovered and ultracentrifuged at 100,000×g for 25 min.
Measurement buffer (50 mM Tris-HCl (pH 7.4), 0.02% bovine serum albumin, 2 μg/mL chymostatin, 40 μg/mL bacitracin, 40 μg/mL APMSF, 3 mM MnCl2) (50 μL) was added to a 96-well microassay plate. The membrane reference standard (20 μg/mL) suspended in a measurement buffer was added by 50 μL.
After reaction at 25° C. for 30 min, the reaction was quenched using a cell harvester (PerkinElmer) by rapid filtration on a GF/C filter plate, and the cells were washed 5 times with 250 μL of a 50 mM Tris-HCl buffer (pH 7.4) containing 0.02% bovine serum albumin. The GF/C filter plate was dried, MicroScinti-0 (PerkinElmer) was added by 20 μL, and the radioactivity was measured on a TopCount (PerkinElmer). The GF/C filter plate used had been immersed in 0.3% polyethyleneimine for one day.
The specific binding level is shown by a value obtained by subtracting non-specific binding level from the total binding level. The binding inhibitory activity of the test compound is shown by a ratio of the value obtained by subtracting the measurement value with addition of a test compound from the total binding level, to the value of the specific binding level.

[2] = molecular target: human NK3 (hNK3) receptor (Homo sapiens (Human), UniProt P29371); experiment: Human NK3 receptor binding assay: radioligand ([125I]-NK-B) binding inhibition using membrane fraction of CHO cells expressing hNK3 receptor; settings: CHO cell membrane fraction
Chain of human NK3 (hNK3) receptor (P29371 whole entry): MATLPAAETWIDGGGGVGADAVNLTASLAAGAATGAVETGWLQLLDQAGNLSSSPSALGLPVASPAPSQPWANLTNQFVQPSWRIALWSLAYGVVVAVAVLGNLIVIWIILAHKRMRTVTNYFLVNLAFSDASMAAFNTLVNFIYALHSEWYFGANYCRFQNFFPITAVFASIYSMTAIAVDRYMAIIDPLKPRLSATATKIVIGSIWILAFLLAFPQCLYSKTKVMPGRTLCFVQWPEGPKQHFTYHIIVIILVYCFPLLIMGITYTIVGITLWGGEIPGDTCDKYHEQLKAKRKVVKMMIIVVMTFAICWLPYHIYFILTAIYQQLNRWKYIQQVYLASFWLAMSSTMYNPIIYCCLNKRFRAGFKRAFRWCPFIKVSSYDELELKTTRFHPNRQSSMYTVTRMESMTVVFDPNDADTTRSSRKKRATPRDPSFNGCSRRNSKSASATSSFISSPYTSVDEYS
Description: CHO cells expressing hNK3 receptor were cultured in a MEMα medium (Nikken Seibutsu Igaku Kenkyusho, K.K.) containing 100 U/mL penicillin, 100 μg/mL streptomycin and 10% inactivated dialyzed serum. The medium was removed, the adhered cells were washed with PBS, and PBS containing 5 mM EDTA was added to detach the cells from the flask. The cells were collected by centrifugation, suspended in suspension buffer A (50 mM Tris-HCl (pH 7.4) containing 120 mM NaCl, 5 mM KCl, 2 μg/mL chymostatin, 40 μg/mL bacitracin, 40 μg/mL APMSF, 1 mM EDTA), disrupted by a Polytron homogenizer (Kinematika), and centrifuged at 800×g for 10 min. The supernatant was recovered and ultracentrifuged at 100,000×g for 25 min. The precipitation fraction was suspended in suspension buffer B (50 mM Tris-HCl (pH 7.4), 0.02% bovine serum albumin, 2 μg/mL chymostatin, 40 μg/mL bacitracin, 40 μg/mL APMSF, 3 mM MnCl2), and cryopreserved (−80° C.) as a receptor reference standard. […]
After reaction at 25° C. for 30 min, the reaction was quenched using a cell harvester (PerkinElmer) by rapid filtration on a GF/C filter plate, and the cells were washed 5 times with 250 μL of a 50 mM Tris-HCl buffer (pH 7.4) containing 0.02% bovine serum albumin. The GF/C filter plate was dried, MicroScinti-0 (Perkin Elmer) was added by 20 μL, and the radioactivity was measured on a TopCount (PerkinElmer). […]

Chain of human NK2 (hNK2) receptor (P21452 whole entry): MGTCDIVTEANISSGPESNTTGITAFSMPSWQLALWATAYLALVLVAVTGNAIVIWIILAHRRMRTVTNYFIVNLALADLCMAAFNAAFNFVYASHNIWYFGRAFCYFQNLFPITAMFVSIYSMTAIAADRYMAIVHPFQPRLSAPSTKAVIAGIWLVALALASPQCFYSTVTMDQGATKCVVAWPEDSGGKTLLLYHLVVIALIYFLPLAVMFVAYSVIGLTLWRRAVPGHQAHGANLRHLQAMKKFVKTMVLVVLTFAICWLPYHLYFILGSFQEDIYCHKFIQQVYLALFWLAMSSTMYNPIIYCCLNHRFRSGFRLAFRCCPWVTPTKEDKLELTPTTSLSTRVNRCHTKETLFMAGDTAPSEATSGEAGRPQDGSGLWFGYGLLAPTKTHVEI
Chain of human NK1 receptor (P25103 whole entry): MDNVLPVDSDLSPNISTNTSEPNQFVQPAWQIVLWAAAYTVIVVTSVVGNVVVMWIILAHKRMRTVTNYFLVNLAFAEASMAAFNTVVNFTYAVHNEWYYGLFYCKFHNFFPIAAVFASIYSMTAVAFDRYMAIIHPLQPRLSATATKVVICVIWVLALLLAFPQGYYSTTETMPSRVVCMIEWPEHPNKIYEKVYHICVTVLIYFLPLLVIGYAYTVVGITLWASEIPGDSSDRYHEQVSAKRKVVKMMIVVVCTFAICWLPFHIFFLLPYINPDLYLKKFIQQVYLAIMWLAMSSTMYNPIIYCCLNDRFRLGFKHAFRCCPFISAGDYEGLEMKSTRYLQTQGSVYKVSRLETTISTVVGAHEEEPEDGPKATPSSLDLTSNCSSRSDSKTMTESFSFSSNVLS

| melting point | SMILES | other results |
| --- | --- | --- |
| 128 to 130 °C | CC(=O)N1CCC(C(=O)N2CC[C@@H](N(C)C(=O)c3ccc(Br)cn3)[C@H](c3ccc(Cl)c(Cl)c3)C2)CC1 | – |
| 128 to 131 °C | CN(C(=O)c1ccc(Cl)cc1)[C@@H]1CCN(C(=O)C2CCN(C(=O)CO)CC2)C[C@H]1c1ccc(Cl)c(Cl)c1.O (hydrate or solvate) | – |
| 124 to 127 °C | CN(C(=O)c1ccc(C(F)(F)F)cc1)[C@@H]1CCN(C(=O)C2CCN(C(=O)CO)CC2)C[C@H]1c1ccc(Cl)c(Cl)c1.O (hydrate or solvate) | – |
| 130 to 132 °C | CN(C(=O)c1ccc(Br)cc1)[C@@H]1CCN(C(=O)C2CCN(C(=O)CO)CC2)C[C@H]1c1ccc(Cl)c(Cl)c1.O (hydrate or solvate) | – |

Further lines, the molecule ahead of its results:

| SMILES | melting point | other results |
| --- | --- | --- |
| COc1ccc(C(=O)N(C)[C@@H]2CCN(C(=O)C3CCN(C(C)=O)CC3)C[C@H]2c2ccc(Cl)c(Cl)c2)cc1 | 134 to 136 °C | – |
| CC(=O)N1CCC(C(=O)N2CC[C@@H](N(C)C(=O)c3ccc(Cl)cc3)[C@H](c3ccc(Cl)c(Cl)c3)C2)CC1.O (hydrate or solvate) | 113 to 115 °C | – |
| CC(=O)N1CCC(C(=O)N2CC[C@@H](N(C)C(=O)c3ccc(N4CCOCC4)cc3)[C@H](c3ccc(Cl)c(Cl)c3)C2)CC1.O (hydrate or solvate) [Example 268, N-[(3R,4R)-1-[(1-acetylpiperidin-4-yl)carbonyl]-3-(3,4-dichlorophenyl)piperidin-4-yl]-N-methyl-4-morpholin-4-ylbenzamide monohydrate] | 136 to 139 °C | – |
| CC(=O)N1CCC(C(=O)N2CC[C@@H](N(C)C(=O)c3ccc(-c4ccccc4)cc3)[C@H](c3ccc(Cl)c(Cl)c3)C2)CC1 (racemic) [Example 31, N-[(3R*,4R*)-1-[(1-acetylpiperidin-4-yl)carbonyl]-3-(3,4-dichlorophenyl)piperidin-4-yl]-N-methylbiphenyl-4-carboxamide] | – | IC50 (human NK1 receptor; radioligand binding inhibition, IM-9 cell receptor, read-out: hNK1 IC50): 410 nM; IC50 [1]: 1.7 nM; IC50 [2]: 160 nM |
| CC(=O)N1CCC(C(=O)N2C[C@@H](N(C)C(=O)c3cc(C(F)(F)F)cc(C(F)(F)F)c3)[C@H](c3ccc(Cl)c(Cl)c3)C2)CC1 (racemic) [Example 82, N-[(3S*,4R*)-1-[(1-acetylpiperidin-4-yl)carbonyl]-4-(3,4-dichlorophenyl)pyrrolidin-3-yl]-N-methyl-3,5-bis(trifluoromethyl)benzamide] | – | IC50 [1]: 2.2 nM |
| CC(=O)N1CCC(C(=O)N2CC[C@@H](N(C)C(=O)c3ccc(N4CCOCC4)cc3)[C@H](c3ccc(Cl)c(Cl)c3)C2)CC1.O [Example 268, N-[(3R,4R)-1-[(1-acetylpiperidin-4-yl)carbonyl]-3-(3,4-dichlorophenyl)piperidin-4-yl]-N-methyl-4-morpholin-4-ylbenzamide monohydrate] | – | hNK1 % inh. (10 μM) (human NK1 receptor; 10 μM): 58.2% inh.; IC50 [1]: 0.42 nM |
| CN(C(=O)c1ccc(Cl)cc1)[C@@H]1CCN(C(=O)Nc2ccc(F)nc2)C[C@H]1c1ccc(Cl)c(Cl)c1 [Example 516, (3R,4R)-4-{[(4-chlorophenyl)carbonyl](methyl)amino}-3-(3,4-dichlorophenyl)-N-(6-fluoropyridin-3-yl)piperidine-1-carboxamide] | 156 to 158 °C | – |

From US8470816B2, “Nitrogen-containing heterocyclic compound and use thereof” (Takeda Pharmaceutical Company Limited, priority 2007, dated 2013)
